Laboratory results reported in patent US11814448B2, “Carrier peptide fragment and use thereof” (TOAGOSEI CO., LTD., priority 2020, dated 2023).
FAM = FAM fluorescent dye

Test system: HeLa cells
Experiment: Evaluation of cell membrane permeability by flow cytometry (FAM fluorescence) in HeLa cells
Assay type: cell-based, human
Conditions: 20-hour incubation; for MFI (mean fluorescent intensity): 10 μM in culture medium, 0.5% DMSO, FL2 fluorescence detector; for introduction of the fluorescent dye (FAM) into the cytoplasm, from the histogram shift (FIG. 1), compared with Example 3 (FAM only): histogram of fluorescent intensity vs cell count
Procedure: The cell membrane permeability of sample 1 and sample 2 was evaluated using HeLa cells (an established cell line derived from human cervical cancer cells) as the eukaryotic cells.
HeLa cells were cultured on DMEM (Dulbecco's modified Eagle's medium (Cat. No. 043-30085, from FUJIFILM Wako Pure Chemical Corporation)) containing 10% FBS (fetal bovine serum), which is a general culture medium.
The HeLa cells attached to the culture plate were washed with PBS, a 0.25% trypsin/EDTA solution was then added, and incubation was carried out for 3 minutes at 37° C. After this incubation, the aforementioned DMEM containing 10% FBS was added and the trypsin was inactivated, and the cells were then sedimented by carrying out centrifugal separation for 5 minutes at 150×g. The supernatant produced by the centrifugal separation was removed, and the aforementioned DMEM containing 10% FBS was added to the sediment (cell pellet) to prepare a cell suspension containing approximately 1×10^5 cells/mL. The cells were seeded (approximately 2×10^5 cells/well) by the addition of 2 mL of this cell suspension to the wells of a commercial 6-well plate ((Iwaki microplate commercially available from AGC techno glass Co., Ltd). The cells were attached to the well bottom by culture for 3 hours at 37° C. under the condition of 5% CO2.
The 2 mM sample solution 1 was then diluted with the aforementioned DMEM containing 10% FBS to prepare a sample solution 1 in which the sample 1 concentration was 20 μM. After the aforementioned 3-hour culture, 1 mL of the culture supernatant was removed from the wells, followed by the addition to the wells of 1 mL of the 20 μM sample solution 1 (i.e., the concentration of sample 1 in the culture medium in the wells was brought to 10 μM and the DMSO concentration was brought to 0.5%). The cells were incubated for 20 hours at 37° C. under the condition of 5% CO2. After this 20-hour incubation, the culture supernatant was removed from the wells and the cells in the wells were washed twice with 1 mL PBS. 200 μL of 0.25% trypsin/EDTA was then added to the wells and incubation was carried out for 3 minutes at 37° C. After this incubation, the trypsin was inactivated by the addition of 400 μL of the aforementioned DMEM containing 10% FBS to the wells, and the cells were subsequently recovered by transferring the cell suspensions in the wells to a tube. The wells were then washed by the further addition of 600 μL PBS to the wells. The cells that had remained in the wells were recovered to the tube by transferring the PBS in the wells to the tube. Centrifugal separation was run on this tube for 5 minutes using conditions of 4° C. and 210×g. After the centrifugal separation, the supernatant was removed, the sediment (cell pellet) was suspended (washed) with 1 mL of PBS, and centrifugal separation was carried out using the same conditions as before. After this procedure has been repeated twice, the supernatant was removed to obtain cells (cell pellet) that had been cultured on a sample 1-containing culture medium.
The cell permeability of sample 1 was analyzed using the resulting cells (cell pellet) and a flow cytometer. An On-Chip Flow Cytometer (On-chip Biotechnologies Co., Ltd.) was used for the flow cytometer.
For this analysis, the cell pellet obtained as described above was suspended in 50 μL PBS. To this suspension was added 50 μL of 2×Sample Buffer for use with the indicated flow cytometer to prepare a cell suspension for submission to analysis.
Gating was performed using this flow cytometer based on forward scatter (FSC) and side scatter (SSC); the gating was set for the cell population that was the target of the analysis; and the fluorescent intensity was measured for the cell population within this gating. The analysis was performed so this cell population reached approximately 10,000. […]

Substance	MFI (mean fluorescent intensity)	introduction of the fluorescent dye (FAM) into the cytoplasm, from the histogram shift (FIG. 1), compared with Example 3 (FAM only) (10 μM)	efficiency (cell membrane permeability) compared using the MFI, Example 1 versus Example 2 (10 μM, ratio of MFI values of Table 3)
5(6)-carboxyfluorescein [Example 3]	5.9	–	–
FAM-KKRTLRKNDRKKR-CONH2 ({FAM}-KKRTLRKNDRKKR-NH2) [Example 2]	10.5	more efficiently introduced	–
FAM-VVRSLVKVVRSLVK-CONH2 ({FAM}-VVRSLVKVVRSLVK-NH2) [Example 1]	690	more efficiently introduced	approximately 65.7 times
